The subject of this assay is gastric acid secretion. Kind of assay: gastric acid secretion inhibiting effect, method of Shay (pylorus bound, free acid titrated). Type of assay: in vivo, Rats (Wistar breed). Particulars: given 3 hours before the operation, free acid determined 4 hours after the operation, inhibition in relation to the control. Here is the method: Rats of both sexes (Wistar breed, weighing 180-240 g) were fastened for 48 hours. On the day of the test the pylorus of the animals was bound under ether narcosis. The test compounds were administered orally 3 hours before the operation. 4 hours after the operation the animals were anaesthetized and the stomach was removed, the content thereof was centrifuged and the amount of the free acid was determined by titration, in the presence of Töpfer reagent. The inhibition in relation to the control is calculated in percentage.

Take `Clc1c2c(nc3nc(N4CCOCC4)nn13)CCCC2` [Example 12, 5-Chloro-2-morpholino-6,7,8,9-tetrahydro-1,2,4-triazolo[5,1-b]quinazoline]: the Inhibition % (Dose 200 mg/kg peroral) is 85%.
Consider `COc1cc(C(=S)N2CCOCC2)cc(OC)c1OC` [Trithiozine, 3,4,5-Trimethoxythio-benzoic acid morpholide, reference compound], for which the Inhibition % (Dose 400 mg/kg peroral) came out at 63%.
`CSc1nc2nc3c(c(Cl)n2n1)CCC3` [Example 2, 5-Chloro-2-methylthio-6,7-dihydro-8H-cyclopenta[d]-1,2,4-triazolo[1,5-a]pyrimidine]: the Inhibition % (Dose 30 mg/kg peroral) was found to be 73%.
Molecule `CSc1nc2nc3c(c(Cl)n2n1)CCCC3` [Example 6, 5-Chloro-2-methylthio-6,7,8,9-tetrahydro-1,2,4-triazolo[5,1-b]quinazoline] came in with an Inhibition % (Dose 60 mg/kg peroral) of 100%.

These data come from patent EP0500137A1, “1,2,4-Triazolo[1,5-a]pyrimidine derivatives, a process for preparing them as well as medicaments containing them and the use of them” (EGIS GYOGYSZERGYAR, priority 1991, dated 1992).
